{"source": "patent US10927139B2", "about": "“Chemically cleavable group” (Tagworks Pharmaceuticals B.V., priority 2012, dated 2021)", "key": {"[1]": {"assay": "Tetrazine-induced doxorubicin release from Axial-TCO-1-Doxorubicin in PBS/MeCN (LCMS)", "conditions": "10 equiv. tetrazine; 25% MeCN in PBS; 37° C.; LCMS at 4 h (n = 3)", "protocol": "PBS/MeCN (1 mL, 3/1), preheated at 37° C. and TCO-2-doxorubicin (10 μL of a 2.5 mM solution in DMSO, 1 eq.) were added to a preheated injection vial. Tetrazine (10 μL of a 25 mM solution in DMSO, 10 eq.) was added and the vial was vortexed. After incubation for 1 hour at 37° C., the vial was placed in LC-MS autosampler at 10° C. LC-MS analysis was performed using a 5% to 100% H2O/MeCN gradient over 11 minutes with a C18 reverse-phase column at 35° C. A control sample containing only TCO-2-doxorubicin (1 eq), as well as a sample containing only doxorubicin (1 eq.), was analyzed under the same conditions. All tetrazine containing samples were measured twice and the doxorubicin control sample was run after every three other samples during an overnight program. […] The calculated percentage of release was corrected when it was observed that the TCO-2-doxorubicin was not fully converted to inv-DA adduct(s). This was done by quantification of remaining dox-TCO, but full conversion was almost always observed. Peak areas (used for doxorubin quantification) were determined at λ=470-500 nm where characteristic doxorubicin absorption takes place and peak integration was done by hand.\n(§1) In a similar fashion as Example 3, the release of doxorubicin from TCO-1-doxorubucin as induced by tetrazines 1, 8, 9 in PBS/ACN and in serum was measured."}, "[2]": {"assay": "Tetrazine-induced doxorubicin release from Axial-TCO-1-Doxorubicin in serum", "parameters": "species or system mouse", "conditions": "10 equiv. tetrazine; 50% serum; 37° C.; LCMS at 4 h (n = 3)", "protocol": "as §1\nSerum experiments were conducted as follows:\nTCO-1-doxorubucin (6.25×10^−8 mol) was dissolved in DMSO (0.050 mL), and PBS (0.475 mL) was added slowly in aliquots of 0.010 mL, followed by mouse serum (0.475 mL). A portion of this mixture (0.200 mL) was equilibrated at 37° C., and a solution of tetrazine (1.25×10^−7 mol) in DMSO (0.005 mL) was added, and the solution was thoroughly mixed and incubated at 37° C. in the dark for 4 h. Subsequently, cold MeCN (0.200 mL) was added, followed by centrifugation at 13400 rpm for 5 min. The supernatant was used for further analysis by HPLCMS/PDA analysis to determine the release of doxorubicin."}, "[3]": {"assay": "Tetrazine-induced release of bead-bound radioactivity from streptavidin beads loaded with 125I-Rtx-TCO-biotin", "conditions": "beads with 21 μg ^125I-Rtx-TCO-biotin/mg; 1.5×10^3 eqs tetrazine; 1 hour at room temperature; gamma counting", "protocol": "The bead suspension containing 21 μg ^125I-Rtx-TCO-biotin/mg beads (1 mL in PBS) was divided in two aliquots and reacted with a large excess of 3,6-dimethyl-1,2,4,5-tetrazine (8, 1.5×10^3 eqs with respect to Rtx) in DMSO (5 μL) or with DMSO alone (control) and incubated for 1 hour at room temperature on a roller bench. […] SDS-PAGE confirmed that the activity in the supernatant was due to the release of ^125I-Rtx from the beads (FIG. 4), thus confirming cleavage of the Rtx-TCO-biotin linker upon reaction with the 3,6-dimethyl-1,2,4,5-tetrazine."}}}
{"smiles": "Cc1nnc(C)nn1", "note": "[tetrazine 8, 3,6-dimethyl-1,2,4,5-tetrazine]", "values": [{"measurement": "Doxorubicin release (%) from Axial-TCO-1-Doxorubicin, PBS/MeCN (3/1)", "setting": "[1]", "value": "79 ± 3", "unit": "%"}, {"measurement": "Doxorubicin release (%) from Axial-TCO-1-Doxorubicin, Serum", "setting": "[2]", "value": "75 ± 4", "unit": "%"}, {"measurement": "release of the bead-bound radioactivity", "setting": "[3]", "value": 37, "unit": "%"}]}
